In brackets after ≈: the same amount, converted by molar mass.
Each compound was assayed on P388 (assay: Cytotoxicity against mouse P388 cells).
Format: functional, cell-based
Compound C=C1C[C@@H]2CC[C@@]34C[C@H]5O[C@H]6[C@@H](O3)[C@H]3O[C@H](CC[C@@H]3O[C@H]6[C@H]5O4)CC(=O)O[C@@H]3[C@@H](C)[C@@H]4O[C@@H]5C[C@]6(C[C@@H]7O[C@]8(C[C@H](C)[C@@H]9O[C@H](CC(=O)CCO)[C@H](O)C[C@@H]9O8)C[C@H](C)[C@@H]7O6)O[C@@H]5C[C@@H]4O[C@H]3C[C@H]3O[C@@H](CC[C@@H]1O2)C[C@@H](C)C3=C [ISOHOMOHALICHONDRIN B] has an IC50 of 0.18 ng/mL (≈ 0.16 nM).
C=C1C[C@@H]2CC[C@@]34C[C@H]5O[C@H]6[C@@H](O3)[C@H]3O[C@H](CC[C@@H]3O[C@H]6[C@H]5O4)CC(=O)O[C@@H]3[C@@H](C)[C@@H]4O[C@@H]5C[C@]6(C[C@@H]7O[C@]8(C[C@H](C)[C@@H]9O[C@H](CC(C)=O)[C@H](O)C[C@@H]9O8)C[C@H](C)[C@@H]7O6)O[C@@H]5C[C@@H]4O[C@H]3C[C@H]3O[C@@H](CC[C@@H]1O2)C[C@@H](C)C3=C was tested, and the IC50 was 0.76 ng/mL (≈ 0.695 nM).
C=C1C[C@@H]2CC[C@@]34C[C@H]5O[C@H]6[C@@H](O3)[C@H]3O[C@H](CC[C@@H]3O[C@H]6[C@H]5O4)CC(=O)O[C@@H]3[C@@H](C)[C@@H]4O[C@@H]5C[C@]6(C[C@@H]7O[C@]8(C[C@H](C)[C@@H]9O[C@H]([C@@H](O)C[C@@H](O)CO)C[C@@H]9O8)C[C@H](C)[C@@H]7O6)O[C@@H]5C[C@@H]4O[C@H]3C[C@H]3O[C@@H](CC[C@@H]1O2)C[C@@H](C)C3=C [HALICHONDRIN B] showed an IC50 of 0.78 ng/mL (≈ 0.702 nM).
Compound C=C1C[C@@H]2CC[C@@]34C[C@H]5O[C@H]6[C@@H](O3)[C@H]3O[C@H](CC[C@@H]3O[C@H]6[C@H]5O4)CC(=O)O[C@@H]3[C@@H](C)[C@@H]4O[C@@H]5C[C@]6(C[C@@H]7O[C@]8(C[C@H](C)[C@@H]9O[C@@H]%10CC(C(O)CCl)O[C@@H]%10C[C@@H]9O8)C[C@H](C)[C@@H]7O6)O[C@@H]5C[C@@H]4O[C@H]3C[C@H]3O[C@@H](CC[C@@H]1O2)C[C@@H](C)C3=C (some centres not stated) has an IC50 of 2 ng/mL (≈ 1.75 nM).
With C=C1C[C@@H]2CC[C@@]34C[C@H]5O[C@H]6[C@@H](O3)[C@H]3O[C@H](CC[C@@H]3O[C@H]6[C@H]5O4)CC(=O)O[C@@H]3[C@@H](C)[C@@H]4O[C@@H]5C[C@]6(C[C@@H]7O[C@]8(C[C@H](C)[C@@H]9O[C@@H]%10CC(C(O)CO)O[C@@H]%10C[C@@H]9O8)C[C@H](C)[C@@H]7O6)O[C@@H]5C[C@@H]4O[C@H]3C[C@H]3O[C@@H](CC[C@@H]1O2)C[C@@H](C)C3=C (some centres not stated) [HOMOHALICHONDRIN B] the IC50 was 0.22 ng/mL (≈ 0.196 nM).
C=C1C[C@@H]2CC[C@@]34C[C@H]5O[C@H]6[C@@H](O3)[C@H]3O[C@H](CC[C@@H]3O[C@H]6[C@H]5O4)CC(=O)O[C@@H]3[C@@H](C)[C@@H]4O[C@@H]5C[C@]6(C[C@@H]7O[C@]8(C[C@H](C)[C@@H]9O[C@@H]%10CC(=O)O[C@@H]%10C[C@@H]9O8)C[C@H](C)[C@@H]7O6)O[C@@H]5C[C@@H]4O[C@H]3C[C@H]3O[C@@H](CC[C@@H]1O2)C[C@@H](C)C3=C showed an IC50 of 1.1 ng/mL (≈ 1.02 nM).
C=C1C[C@@H]2CC[C@@]34C[C@H]5O[C@H]6[C@@H](O3)[C@H]3O[C@H](CC[C@@H]3O[C@H]6[C@H]5O4)CC(=O)O[C@@H]3[C@@H](C)[C@@H]4O[C@@H]5C[C@]6(C[C@@H]7O[C@]8(C[C@H](C)[C@@H]9OC(=O)C[C@@H]9O8)C[C@H](C)[C@@H]7O6)O[C@@H]5C[C@@H]4O[C@H]3C[C@H]3O[C@@H](CC[C@@H]1O2)C[C@@H](C)C3=C was tested, and the IC50 was 1.1 ng/mL (≈ 1.08 nM).

From ChEMBL document CHEMBL1154544, “Antitumour polyether macrolides: four new halichondrins from the New Zealand deep-water marine sponge Lissodendoryx sp” (Bioorg Med Chem, 2009)
